Experimental findings from patent publication US12180193B2, “Accelerating fibrosarcoma protein degrading compounds and associated methods of use” (Arvinas Operations, Inc., priority 2020, dated 2024) are described below.

Assay [1] addresses T1, BRAF V600E (Homo sapiens, UniProt P15056, V600E).
T1 construct: expressed in transfected cells
The assay can be described thus: Cellular assay of target protein degradation, T-Rex 293 cells stably transfected with HA-BRAF_V600E (HA immunofluorescence, high content imaging). The assay is classed as cell-based. The settings on record: T-Rex 293 HA-BRAF V600E; for DC50: half maximal degradation, read-out: BRaf V600E DC50; for Dmax: maximum degradation observed. Summed up:
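Doxycycline-induced (1 ng/mL) cells were treated 24 h at 37 °C with compound at 1 μM to 0.1 nM final in 0.1% DMSO. After fixation, permeabilization and blocking, anti-HA staining was imaged by high-content reading; DC50 and Dmax (% of control) were derived.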

Assay [2] deals with T2, BRAF G466V (Homo sapiens, UniProt P15056, G466V).
T2 construct: expressed in transfected cells
T2 sequence (P15056 whole entry G466V): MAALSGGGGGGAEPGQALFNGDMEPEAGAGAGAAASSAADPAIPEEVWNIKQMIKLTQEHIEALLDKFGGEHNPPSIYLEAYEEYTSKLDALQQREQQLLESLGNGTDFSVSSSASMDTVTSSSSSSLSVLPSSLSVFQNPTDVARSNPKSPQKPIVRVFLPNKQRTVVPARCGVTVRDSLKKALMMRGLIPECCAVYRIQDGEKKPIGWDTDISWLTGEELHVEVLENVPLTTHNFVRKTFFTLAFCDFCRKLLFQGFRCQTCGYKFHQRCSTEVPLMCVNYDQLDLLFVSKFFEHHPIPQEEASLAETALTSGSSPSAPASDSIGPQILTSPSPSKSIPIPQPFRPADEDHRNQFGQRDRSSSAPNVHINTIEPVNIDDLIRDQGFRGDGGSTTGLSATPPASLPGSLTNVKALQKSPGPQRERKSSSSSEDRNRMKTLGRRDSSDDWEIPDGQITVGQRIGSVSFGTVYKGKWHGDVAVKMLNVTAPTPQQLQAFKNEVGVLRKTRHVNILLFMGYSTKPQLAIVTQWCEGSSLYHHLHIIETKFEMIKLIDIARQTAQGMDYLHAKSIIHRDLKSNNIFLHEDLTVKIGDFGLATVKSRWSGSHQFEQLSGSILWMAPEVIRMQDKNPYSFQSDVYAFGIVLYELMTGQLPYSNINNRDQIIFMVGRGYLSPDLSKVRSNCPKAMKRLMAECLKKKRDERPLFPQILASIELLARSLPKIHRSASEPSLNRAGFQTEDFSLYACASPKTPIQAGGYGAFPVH
The assay can be described thus: Cellular assay of target protein degradation, T-Rex 293 cells stably transfected with HA-BRAF G466V (HA immunofluorescence, high content imaging). As to conditions: T-Rex 293 HA-BRAF G466V; for DC50: half maximal degradation, read-out: BRaf G466V DC50; for Dmax: maximum degradation observed. The assay is classed as cell-based. Summed up: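 Cells expressing doxycycline-induced (0.75 ng/mL) HA-BRAF G466V were treated with compound at 30 nM to 3 pM in 0.1% DMSO for 24 hours at 37° C. After fixation and permeabilization, HA was immunostained and quantified by high content imaging to derive DC50 and Dmax.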

As usually defined, the DC50 is the concentration at which degradation of the target reaches its halfway point. What is called Dmax is the largest share of the target that was removed. The low end stands for shallow degradation, the high end for deep degradation.

SMILES strings stand for the structures. Some results are limits rather than exact numbers.

T1 sequence (P15056 whole entry V600E): as the sequence (P15056 whole entry G466V) above, with V466G, V600E counted along it

On to `O=C1CCC(N2Cc3cc([C@H](O)CN4CC5(C4)CN(c4ccc(-c6cnc7[nH]cc(C(=O)c8c(F)ccc(NS(=O)(=O)N9CC[C@@H](F)C9)c8F)c7c6)cc4)C5)ccc3C2=O)C(=O)N1` (stereo partly drawn) [Compound 299, (3R)-N-{3-[5-(4-{6-[(2S)-2-[2-(2,6-dioxopiperidin-3-yl)-1-oxo-2,3-dihydro-1H-isoindol-5-yl]-2-hydroxyethyl]-2,6-diazaspiro[3.3]heptan-2-yl}phenyl)-1H-pyrrolo[2,3-b]pyridine-3-carbonyl]-2,4-difluorophenyl}-3-fluoropyrrolidine-1-sulfonamide], for which, in assay [1], the DC50 was 5 to 50 nM and the Dmax lay within 35 to 70%. In assay [2], the DC50 fell in the range of 1 to 10 nM and the Dmax is more than 70%.

For `O=C1CC[C@H](N2Cc3cc([C@@H](O)CCN4CCN(c5ccc(-c6cnc7[nH]cc(C(=O)c8c(F)ccc(NS(=O)(=O)N9CC[C@@H](F)C9)c8F)c7c6)cc5)CC4)c(F)cc3C2=O)C(=O)N1` [Compound 300, (3R)-N-{3-[5-(4-{4-[(3S)-3-{2-[(3S)-2,6-dioxopiperidin-3-yl]-6-fluoro-1-oxo-2,3-dihydro-1H-isoindol-5-yl}-3-hydroxypropyl]piperazin-1-yl}phenyl)-1H-pyrrolo[2,3-b]pyridine-3-carbonyl]-2,4-difluorophenyl}-3-fluoropyrrolidine-1-sulfonamide], in assay [1], the DC50 lay within 50 to 500 nM and the Dmax was in the range of 35 to 70%. For the same compound, in assay [2], the half-maximal degradation concentration (DC50) was less than 1 nM and the Dmax lay in the range of 35 to 70%.

For `O=C1CC[C@@H](N2Cc3cc([C@@H](O)CCN4CCN(c5ccc(-c6cnc7[nH]cc(C(=O)c8c(F)ccc(NS(=O)(=O)N9CC[C@@H](F)C9)c8F)c7c6)cc5)CC4)c(F)cc3C2=O)C(=O)N1` [Compound 301, (3R)-N-{3-[5-(4-{4-[(3S)-3-{2-[(3R)-2,6-dioxopiperidin-3-yl]-6-fluoro-1-oxo-2,3-dihydro-1H-isoindol-5-yl}-3-hydroxypropyl]piperazin-1-yl}phenyl)-1H-pyrrolo[2,3-b]pyridine-3-carbonyl]-2,4-difluorophenyl}-3-fluoropyrrolidine-1 sulfonamide], in assay [1], the 50% degradation concentration (DC50) is 50 to 500 nM and the Dmax lay in the range of 35 to 70%. For the same compound, in assay [2], the half-maximal degradation concentration (DC50) was less than 1 nM and the Dmax was more than 70%.

In the case of `O=C1CCC(N2Cc3cc(N4CCC(CC5CN(c6ccc(-c7cnc8[nH]cc(C(=O)c9c(F)ccc(NS(=O)(=O)N%10CC[C@@H](F)C%10)c9F)c8c7)cc6)C5)CC4)ccc3C2=O)C(=O)N1` (stereo partly drawn) [Compound 302, (3R)-N-[3-(5-{4-[3-({1-[2-(2,6-dioxopiperidin-3-yl)-1-oxo-2,3-dihydro-1H-isoindol-5-yl]piperidin-4-yl}methyl)azetidin-1-yl]phenyl}-1H-pyrrolo[2,3-b]pyridine-3-carbonyl)-2,4-difluorophenyl]-3-fluoropyrrolidine-1-sulfonamide], in assay [1], the DC50 was in the range of 50 to 500 nM and the Dmax was in the range of 35 to 70%. Further, in assay [2], the DC50 was in the range of 1 to 10 nM and the Dmax fell in the range of 35 to 70%.

Take `O=C1CCC(N2Cc3cc(N4CC(CN5CCC(Cc6ccc(-c7cnc8[nH]cc(C(=O)c9c(F)ccc(NS(=O)(=O)N%10CC[C@@H](F)C%10)c9F)c8c7)cc6)CC5)C4)ccc3C2=O)C(=O)N1` (stereo partly drawn) [Compound 303, (3R)-N-{3-[5-(4-{[1-({1-[2-(2,6-dioxopiperidin-3-yl)-1-oxo-2,3-dihydro-1H-isoindol-5-yl]azetidin-3-yl}methyl)piperidin-4-yl]methyl}phenyl)-1H-pyrrolo[2,3-b]pyridine-3-carbonyl]-2,4-difluorophenyl}-3-fluoropyrrolidine-1-sulfonamide]: the results for the DC50 in assay [1] and in assay [2] were 5 to 50 nM and 1 to 10 nM, respectively. For the same compound, the Dmax is 35 to 70% in assay [1] and more than 70% in assay [2].

Regarding `O=C1CCC(N2Cc3cc(N4CC(CN5CCC(C6(c7ccc(-c8cnc9[nH]cc(C(=O)c%10c(F)ccc(NS(=O)(=O)N%11CC[C@@H](F)C%11)c%10F)c9c8)cc7)CC6)CC5)C4)ccc3C2=O)C(=O)N1` (stereo partly drawn) [Compound 304, (3R)-N-{3-[5-(4-{1-[1-({1-[2-(2,6-dioxopiperidin-3-yl)-1-oxo-2,3-dihydro-1H-isoindol-5-yl]azetidin-3-yl}methyl)piperidin-4-yl]cyclopropyl}phenyl)-1H-pyrrolo[2,3-b]pyridine-3-carbonyl]-2,4-difluorophenyl}-3-fluoropyrrolidie-1-sulfonamide], the DC50 in assay [1] lay in the range of 50 to 500 nM; in assay [2], 1 to 10 nM. The Dmax in assay [1] and in assay [2] was 35 to 70% each time.

For `O=C1CCC(N2Cc3cc(N4CC(CC5CCN(c6ccc(-c7cnc8[nH]cc(C(=O)c9c(F)ccc(NS(=O)(=O)N%10CC[C@@H](F)C%10)c9F)c8c7)cc6)CC5)C4)ccc3C2=O)C(=O)N1` (stereo partly drawn) [Compound 306, (3R)-N-[3-(5-{4-[4-({1-[2-(2,6-dioxopiperidin-3-yl)-1-oxo-2,3-dihydro-1H-isoindol-5-yl]azetidin-3-yl}methyl)piperidin-1-yl]phenyl}-1H-pyrrolo[2,3-b]pyridine-3-carbonyl)-2,4-difluorophenyl]-3-fluoropyrrolidine-1-sulfonamide], in assay [1], the DC50 was 50 to 500 nM and the Dmax fell in the range of 35 to 70%. In assay [2], the DC50 is 1 to 10 nM and the Dmax fell in the range of 35 to 70%.

As for `O=C1CCC(N2Cc3cc(N4CCC(CN5CC(Cc6ncc(-c7cnc8[nH]cc(C(=O)c9c(F)ccc(NS(=O)(=O)N%10CC[C@@H](F)C%10)c9F)c8c7)cn6)C5)CC4)ccc3C2=O)C(=O)N1` (stereo partly drawn) [Compound 307, (3R)-N-{3-[5-(2-{[1-({1-[2-(2,6-dioxopiperidin-3-yl)-1-oxo-2,3-dihydro-1H-isoindol-5-yl]piperidin-4-yl}methyl)azetdidin-3-yl]methyl}pyrimidin-5-yl)-1H-pyrrolo[2,3-b]pyridine-3-carbonyl]-2,4-difluorophenyl}-3-fluoropyrrolidine-1-sulfonamide], in assay [1], the DC50 was more than 500 nM and the Dmax was more than 70%. Also, in assay [2], the DC50 lay in the range of 1 to 10 nM and the Dmax lay within 35 to 70%.

For the compound `O=C1CCC(N2Cc3cc(N4CCC(CCC5CCN(c6ccc(-c7cnc8[nH]cc(C(=O)c9c(F)ccc(NS(=O)(=O)N%10CC[C@@H](F)C%10)c9F)c8c7)cc6)CC5)CC4)ccc3C2=O)C(=O)N1` (stereo partly drawn) [Compound 308, (3R)-N-[3-(5-{4-[4-(2-{1-[2-(2,6-dioxopiperidin-3-yl)-1-oxo-2,3-dihydro-1H-isoindol-5-yl]piperidin-4-yl}ethyl)piperidin-1-yl]phenyl}-1H-pyrrolo[2,3-b]pyridine-3-carbonyl)-2,4-difluorophenyl]-3-fluoropyrrolidine-1-sulfonamide], the values for the DC50 in assay [1] and in assay [2] were 50 to 500 nM and more than 30 nM, respectively. Besides, in assay [1], the Dmax is less than 35%.

With `O=C1CCC(N2Cc3cc(N4CCC(CN5CC[C@@H]6CN(c7ccc(-c8cnc9[nH]cc(C(=O)c%10c(F)ccc(NS(=O)(=O)N%11CC[C@@H](F)C%11)c%10F)c9c8)cc7)C[C@@H]6C5)CC4)ccc3C2=O)C(=O)N1` (stereo partly drawn) [Compound 309], the DC50 in assay [1] lay in the range of 5 to 50 nM; in assay [2], 1 to 10 nM. The Dmax in assay [1] was 35 to 70%; in assay [2] it was more than 70%.

In the case of `O=C1CCC(N2Cc3cc(CCCN4CC5(C4)CN(c4ccc(-c6cnc7[nH]cc(C(=O)c8c(F)ccc(NS(=O)(=O)N9CC[C@@H](F)C9)c8F)c7c6)cc4F)C5)ccc3C2=O)C(=O)N1` (stereo partly drawn) [Compound 310, (3R)-N-(3-{5-[4-(6-{3-[2-(2,6-dioxopiperidin-3-yl)-1-oxo-2,3-dihydro-1H-isoindol-5-yl]propyl}-2,6-diazaspiro[3.3]heptan-2-yl)-3-fluorophenyl]-1H-pyrrolo[2,3-b]pyridine-3-carbonyl}-2,4-difluorophenyl)-3-fluoropyrrolidine-1-sulfonamide], in assay [1], the DC50 lay in the range of 5 to 50 nM and the Dmax lay within 35 to 70%. In assay [2], the 50% degradation concentration (DC50) fell in the range of 1 to 10 nM and the Dmax was more than 70%.

For the compound `O=C1CCC(N2Cc3cc(N4CCC(CN5CC[C@@H]6[C@H](C5)CN6c5ccc(-c6cnc7[nH]cc(C(=O)c8c(F)ccc(NS(=O)(=O)N9CC[C@@H](F)C9)c8F)c7c6)cc5)CC4)ccc3C2=O)C(=O)N1` (stereo partly drawn) [Compound 311, (3R)-N-[3-(5-{4-[(1R,6R)-3-({1-[2-(2,6-dioxopiperidin-3-yl)-1-oxo-2,3-dihydro-1H-isoindol-5-yl]piperidin-4-yl}methyl)-3,7-diazabicyclo[4.2.0]octan-7-yl]phenyl}-1H-pyrrolo[2,3-b]pyridine-3-carbonyl)-2,4-difluorophenyl]-3-fluoropyrrolidine-1-sulfonamide], the DC50 in assay [1] lay in the range of 5 to 50 nM; in assay [2], 1 to 10 nM. Moreover, the Dmax is 35 to 70% in assay [1] and more than 70% in assay [2].

Regarding `O=C1CCC(N2Cc3cc(C4CCN(C[C@@H]5CCN(c6ccc(-c7cnc8[nH]cc(C(=O)c9c(F)ccc(NS(=O)(=O)N%10CC[C@@H](F)C%10)c9F)c8c7)cc6)C(=O)C5)CC4)ccc3C2=O)C(=O)N1` (stereo partly drawn) [Compound 312, (3R)-N-[3-(5-{4-[(4R)-4-({4-[2-(2,6-dioxopiperidin-3-yl)-1-oxo-2,3-dihydro-1H-isoindol-5-yl]piperidin-1-yl}methyl)-2-oxopiperidin-1-yl]phenyl}-1H-pyrrolo[2,3-b]pyridine-3-carbonyl)-2,4-difluorophenyl]-3-fluoropyrrolidine-1-sulfonamide], the DC50 in assay [1] was 50 to 500 nM; in assay [2] it was 1 to 10 nM. Also, the Dmax in assay [1] and in assay [2] was more than 70% in each case.
